Laboratory results as given in patent US12061202B2, “Compositions and methods for bioluminescent detection using multifunctional probes” (Promega Corporation, priority 2019, dated 2024).

How the values were obtained:
Format in all cases: cell-based
K562 cells [1] = assay: Release of labeled proteins from dead cells, NanoBiT bioluminescence (HaloTag-SmBiT/HaloTag-LgBiT), K562; settings: for Dead/Live at 5,000 cells/well: final labeling probe concentration 5 μM; for Dead, RLUs: dead (digitonin treated) cells; for Live, RLUs: live cells; for Dead/Live: ratio after background subtraction
Protocol: (§1) Next, the bifunctional labeling probe was thawed at room temperature and mixed. The probe was generally contained in DMSO. The bifunctional probe was added to the cells at a final concentration between about 0.5-10 μM. The cells were then mixed by gently pipetting and incubated for 30 minutes at 37° C. To inactivate unreactive free labeling probe, a 10× volume of pre-warmed (37° C.) cell culture medium containing 10% FBS was added, and the cells incubated for additional 5 minutes. The labeled cells were then spun down, and the labeling media removed. The cells were resuspended in fresh cell culture media at the concentration required for the experiment.
(§2) In some embodiments, one or more components of the NanoBiT® system can be used for measuring cell death of pre-labeled cell population in mixed cell cultures. Here, an exemplary protocol is described for using this assay in 96-well plates in […]: 50 μl of sample+50 μl of Detection Reagent+25 μl of Nano-Glo® Luciferase Assay substrate.
(§3) Labeled cells (1,250-10,000 cells/well) were plated with experimental treatment conditions (e.g., drug, effector cells, etc.) in 50 μl of appropriate medium. Wells without cells were included as negative controls to determine background luminescence in the media. Separate wells were included with pre-labeled cells for determining maximum release of labeled proteins. Detection Reagents were assembled: about 1 ml of Detection Reagent buffer (2×) was combined with about 1.25 μl of Detection Component 1 and 1.25 μl of Detection Component 2. If maximum release determination was needed, the required amount of prepared Detection Reagent (50 μl/per sample) was removed, and digitonin at 0.12 mg/ml concentration added (for example, add 6 μl to 1 ml of Detection Reagent).
(§4) About 50 μl of prepared Detection Reagent was added into all assay wells and negative (media) control wells. Detection Reagent with Digitonin was added into control wells for determining maximum release. The cells were placed into a tissue culture incubator, and the treatment continued up to 24 hours. Nano-Glo® Luciferase Assay Substrate was prepared by diluting (1:50) substrate into assay medium. The assay plate was then removed from the tissue culture incubator and equilibrated to room temperature for about 5 mins. About 25 μL of prepared substrate was added to the assay wells, mixed, and luminescence was read.
(§5) No labeling control was included for toxicity evaluation. After labeling, the cells were resuspended in appropriate medium, counted, and plated into wells of a 96-well plate at two-fold serial dilution starting from 20,000 cells/well. The Detection Reagents with or without digitonin were added as described above, and the plates were placed into a tissue culture incubator. After incubation, Nano-Glo® Luciferase Assay substrate was added to the samples, and luminescence was read. After reading luminescence, an equal volume of CellTiter-Glo was added to the samples to measure changes in viability. […] The linear range of the assay is underlined. Dead/Live is the ratio between luminescence signal of dead and live cells calculated after assay background subtraction (media control).

Raji cells [2] = assay: Release of labeled proteins from dead cells, NanoBiT bioluminescence, Raji; settings: for Dead/Live at 5,000 cells/well: final labeling probe concentration 2 μM; for Dead, RLUs: dead (digitonin treated) cells; for Live, RLUs: live cells; for Dead/Live: ratio after background subtraction
Protocol: as §1, §2, §3, §4, §5

SKBR3 = assay: Release of labeled proteins from dead cells, NanoBiT bioluminescence, SKBR3; settings: final labeling probe concentration 10 μM
Protocol: as §1
(§6) In some embodiments, one or more components of the NanoBiT® system can be used for measuring cell death of pre-labeled cell population in mixed cell cultures. […]
(§7) Labeled cells (1,250-10,000 cells/well) were plated with experimental treatment conditions (e.g., drug, effector cells, etc.) in 50 μl of appropriate medium. Wells without cells were included as negative controls to determine background luminescence in the media. […]
(§8) About 50 μl of prepared Detection Reagent was added into all assay wells and negative (media) control wells. […] About 25 μL of prepared substrate was added to the assay wells, mixed, and luminescence was read.

HCT116 = assay: Release of labeled proteins from dead cells, NanoBiT bioluminescence, HCT116; settings: final labeling probe concentration 10 μM
Protocol: as §1, §6, §7, §8

A431 = assay: Release of labeled proteins from dead cells, NanoBiT bioluminescence, A431; settings: final labeling probe concentration 10 μM
Protocol: as §1, §6, §7, §8

K562 cells [3] = assay: Cell viability after labeling, CellTiter-Glo, K562; settings: labeled at 2 and 5 μM
Protocol: (§9) For assay optimization, labeling the cells at different probe concentrations and setting up cell titration curves can be advantageous. To evaluate effect of labeling on cell viability, different viability/toxicity assays can also be used. Here, an example of assay optimization is provided using Raji and K562 cells. […] However, labeling efficiency, toxicity, assay linearity, and assay window differed depending on the cell line and labeling conditions. […] Labeling K562 at 2 μM extended linear range of the assay up to 20,000 cells/well, however assay window decreased from 18-fold to 7-8-fold.
as §5

Raji cells [4] = assay: Cell viability after labeling, CellTiter-Glo, Raji
Protocol: as §9, §5

various cell types = assay: Labeling of various cell types with bifunctional probe, NanoBiT detection (FIG. 2B)
Text: As shown in FIGS. 2A-2B, a variety of cells were labeled with the bifunctional probes of the present disclosure. FIG. 2A is a representative schematic diagram of a method used to label the various target cells identified in FIG. 2B. […] Robust luminescence was detected from the labeled proteins released after cell death, which were quantified using the NanoBiT® system, while little luminescence was detected in the media and live cells.
In accordance with these experiments, the various cell types tested were collected by centrifugation for 5 mins at 300 g followed by aspiration of the media and resuspension in PBS. The bifunctional probe was then added to the media and allowed to incubate for 30 mins at 37° C. Pre-warmed (37° C.) complete media containing 10% serum was then added to the cells and incubated for 5 mins at 37° C. The labeled cells were then collected by centrifugation for 5 mins at 300 g and excess media was removed, and the labeled cells were then resuspended in the desired media. NanoBiT® detection reagents were then added to the labeled cells and allowed to incubate for 30 mins at 37° C. prior to reading luminescence (RLUs).

Daudi cells = assay: Antibody dependent cellular cytotoxicity (ADCC), labeled Daudi cells co-cultured with PBMC; settings: Daudi labeled with 1 μM Labeling Probe; PBMC E:T 20:1; 5 hours at 37° C.
Protocol: As shown in FIGS. 3A-3C, experiments were conducted to test antibody dependent cellular cytotoxicity (ADCC) in Daudi (FIGS. 3A-3B) and SKBR3 (FIG. 3C) cells labeled with the bifunctional probes of the present disclosure. Daudi and SKBR3 cells were labeled with 1 μM and 10 μM Labeling Probe respectively and co-cultured with peripheral blood mononuclear cells (PBMC; Cellular Technologies Limited) at an E:T ratio of 20:1 (100,000 effector to 5,000 target) with indicated antibody titrations for 5 hours at 37° C. prior to Nano-Glo® Luciferase Assay Substrate addition. […] Curves in FIGS. 3B and 3C were generated following assay background subtraction (RLU [Target cells+Effector cells+Detection Components]−RLU [Media+Detection Components]) using a four parametric variable slope algorithm in Prism.

Raji target cells = assay: Bispecific T-cell engager (BiTE) target cell lysis, labeled Raji target cells with TALL-104 effector cells; settings: Raji (1.67 μM Labeling probe); TALL-104 effector 2.5:1; 6 hours at 37° C.
Protocol: BiTEs are a class of artificial bispecific monoclonal antibodies that are investigated for the use as anti-cancer drugs as they are used to direct the T cells' cytotoxic activity to target cells (e.g., cancer cells). As shown, Raji target cells (1.67 μM Labeling probe) and TALL-104 effector cells were co-cultured at 2.5:1 ratio (12,500 effector to 5,000 target) in a 96-well assay plate. Bincyto was titrated at indicated concentrations and assay plate was incubated for 6 hours at 37° C. prior to Nano-Glo® Luciferase Assay Substrate addition. Curves were generated following assay background subtraction as described in above. […] S/B=BiTE/no BiTE. % antibody dependent target cell lysis=100×(RLU [target+ effector+antibody]−RLU [target+ effector])/(RLU [target+ effector+digitonin]−RLU [target+ effector]).

## O=C(NCCOCCOCCCCCCCl)c1ccc(C(=O)ON2C(=O)CCC2=O)cc1 [Labeling Probe, 2,5-dioxopyrrolidin-1-yl 4-((2-(2-((6-chlorohexyl)oxy)ethoxy)ethyl)carbamoyl)benzoate]
K562 cells [1]; at 4 h
  Dead/Live at 5,000 cells/well: 18.3
K562 cells [1]; at 24 h
  Dead/Live at 5,000 cells/well: 19.0
K562 cells [1]; labeling at 2 μM
  assay window: 7-8 fold
K562 cells [1]; labeling at 5 μM
  assay window: 18 fold
K562 cells [1]; probe 2 μM, 1,250 cells/well
  Dead, RLUs: 69,663 RLUs
  Live, RLUs: 37,113 RLUs
  Dead/Live: 5.0
K562 cells [1]; probe 2 μM, 2,500 cells/well
  Dead, RLUs: 88,448 RLUs
  Live, RLUs: 40,600 RLUs
  Dead/Live: 5.2
K562 cells [1]; probe 2 μM, 5,000 cells/well
  Dead, RLUs: 114,346 RLUs
  Live, RLUs: 42,059 RLUs
  Dead/Live: 7.6
K562 cells [1]; probe 2 μM, 10,000 cells/well
  Dead, RLUs: 154,018 RLUs
  Live, RLUs: 47,861 RLUs
  Dead/Live: 7.3
K562 cells [1]; probe 2 μM, 20,000 cells/well
  Dead, RLUs: 192,283 RLUs
  Live, RLUs: 51,528 RLUs
  Dead/Live: 7.9
K562 cells [1]; probe 5 μM, 1,250 cells/well
  Dead, RLUs: 236,022 RLUs
  Live, RLUs: 43,298 RLUs
  Dead/Live: 18.1
K562 cells [1]; probe 5 μM, 2,500 cells/well
  Dead, RLUs: 373,598 RLUs
  Live, RLUs: 50,284 RLUs
  Dead/Live: 18.7
K562 cells [1]; probe 5 μM, 5,000 cells/well
  Dead, RLUs: 591,060 RLUs
  Live, RLUs: 60,873 RLUs
  Dead/Live: 19.4
K562 cells [1]; probe 5 μM, 10,000 cells/well
  Dead, RLUs: 620,751 RLUs
  Live, RLUs: 76,596 RLUs
  Dead/Live: 13.1
K562 cells [1]; probe 5 μM, 20,000 cells/well
  Dead, RLUs: 477,185 RLUs
  Live, RLUs: 78,093 RLUs
  Dead/Live: 9.4
K562 cells [1]; within the linear range of the assay
  increase in light output in live cells as compared to media control: less than 2 fold
Raji cells [2]; at 4 h
  Dead/Live at 5,000 cells/well: 35.4
Raji cells [2]; at 24 h
  Dead/Live at 5,000 cells/well: 21.7
Raji cells [2]; labeling concentration 1 μM
  assay window: > 5 fold
Raji cells [2]; labeling with 5 μM
  increase in luminescence signal in live cells from media only control: > 2 fold
Raji cells [2]; probe 1 μM, 1,250 cells/well
  Dead, RLUs: 112,901 RLUs
  Live, RLUs: 71,937 RLUs
  Dead/Live: 6.0
Raji cells [2]; probe 1 μM, 2,500 cells/well
  Dead, RLUs: 164,403 RLUs
  Live, RLUs: 78,455 RLUs
  Dead/Live: 6.8
Raji cells [2]; probe 1 μM, 5,000 cells/well
  Dead, RLUs: 257,879 RLUs
  Live, RLUs: 88,466 RLUs
  Dead/Live: 7.9
Raji cells [2]; probe 1 μM, 10,000 cells/well
  Dead, RLUs: 403,731 RLUs
  Live, RLUs: 107,531 RLUs
  Dead/Live: 7.8
Raji cells [2]; probe 1 μM, 20,000 cells/well
  Dead, RLUs: 731,355 RLUs
  Live, RLUs: 134,572 RLUs
  Dead/Live: 9.4
Raji cells [2]; probe 5 μM, 1,250 cells/well
  Live, RLUs: 210,695 RLUs
  Dead/Live: 7.7
Raji cells [2]; probe 5 μM, 2,500 cells/well
  Dead, RLUs: 2,179,562 RLUs
  Live, RLUs: 317,452 RLUs
  Dead/Live: 8.2
Raji cells [2]; probe 5 μM, 5,000 cells/well
  Dead, RLUs: 3,826,655 RLUs
  Live, RLUs: 508,581 RLUs
  Dead/Live: 8.4
Raji cells [2]; probe 5 μM, 10,000 cells/well
  Dead, RLUs: 4,916,472 RLUs
  Live, RLUs: 672,232 RLUs
  Dead/Live: 7.9
Raji cells [2]; probe 5 μM, 20,000 cells/well
  Dead, RLUs: 3,314,700 RLUs
  Live, RLUs: 645,489 RLUs
  Dead/Live: 5.6
SKBR3; at 4 h
  Dead/Live at 5,000 cells/well: 10.1
SKBR3; at 24 h
  Dead/Live at 5,000 cells/well: 10.9
HCT116; at 4 h
  Dead/Live at 5,000 cells/well: 8.1
HCT116; at 24 h
  Dead/Live at 5,000 cells/well: 6.7
A431; at 4 h
  Dead/Live at 5,000 cells/well: 7.4
A431; at 24 h
  Dead/Live at 5,000 cells/well: 6.2
K562 cells [3]
  cell viability measured with CellTiter-Glo: no decrease in cell viability
Raji cells [4]; labeling concentration 1 μM
  effect on cell viability: without significant effect on cell viability
Raji cells [4]; labeling with 5 μM
  decrease in cell viability as measured by CellTiter-Glo: more than 40%
Various cell types
  uptake of probe by cells: successfully taken up by every cell tested

## Rituximab: antibody titrated in ADCC assay on Daudi cells
Daudi cells
  EC50: 6.8 ng/mL

## Bincyto: bispecific T-cell engager (BiTE) titrated on Raji target cells with TALL-104 effector cells
Raji target cells
  EC50: 5.38 µM
